Data from ChEMBL document CHEMBL1955849, “Design and synthesis of thiourea compounds that inhibit transmembrane anchored carbonic anhydrases” (Bioorg Med Chem, 2012).

What was measured:
Carbonic anhydrase 1 = Carbonic anhydrase 1 (Homo sapiens, UniProt P00915)
Carbonic anhydrase 9 = Carbonic anhydrase 9 (Homo sapiens, UniProt Q16790)
Carbonic anhydrase 12 = Carbonic anhydrase 12 (Homo sapiens, UniProt O43570)
Carbonic anhydrase 14 = Carbonic anhydrase 14 (Homo sapiens, UniProt Q9ULX7)
Carbonic anhydrase 2 = Carbonic anhydrase 2 (Homo sapiens, UniProt P00918)
[1] = Solubility of the compound in water; format: physicochemical

Sequence of Carbonic anhydrase 14 (Q9ULX7 whole entry): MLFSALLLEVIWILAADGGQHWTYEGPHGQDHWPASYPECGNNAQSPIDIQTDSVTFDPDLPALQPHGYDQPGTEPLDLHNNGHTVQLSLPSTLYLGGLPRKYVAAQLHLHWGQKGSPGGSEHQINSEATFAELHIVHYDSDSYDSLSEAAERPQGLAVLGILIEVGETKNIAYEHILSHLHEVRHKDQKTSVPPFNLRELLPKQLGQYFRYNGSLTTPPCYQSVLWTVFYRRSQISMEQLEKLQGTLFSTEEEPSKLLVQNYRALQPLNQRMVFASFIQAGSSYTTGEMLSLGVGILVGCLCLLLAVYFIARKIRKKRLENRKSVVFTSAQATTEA
Sequence of Carbonic anhydrase 1 (P00915 whole entry): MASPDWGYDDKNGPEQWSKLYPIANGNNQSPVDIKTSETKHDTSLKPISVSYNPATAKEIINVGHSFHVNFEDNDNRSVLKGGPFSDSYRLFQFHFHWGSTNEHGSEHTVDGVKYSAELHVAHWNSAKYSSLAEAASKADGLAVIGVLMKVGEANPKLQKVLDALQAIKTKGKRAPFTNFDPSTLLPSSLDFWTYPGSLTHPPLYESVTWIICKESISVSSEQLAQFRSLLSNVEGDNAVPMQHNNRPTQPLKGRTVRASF
Sequence of Carbonic anhydrase 12 (O43570 whole entry): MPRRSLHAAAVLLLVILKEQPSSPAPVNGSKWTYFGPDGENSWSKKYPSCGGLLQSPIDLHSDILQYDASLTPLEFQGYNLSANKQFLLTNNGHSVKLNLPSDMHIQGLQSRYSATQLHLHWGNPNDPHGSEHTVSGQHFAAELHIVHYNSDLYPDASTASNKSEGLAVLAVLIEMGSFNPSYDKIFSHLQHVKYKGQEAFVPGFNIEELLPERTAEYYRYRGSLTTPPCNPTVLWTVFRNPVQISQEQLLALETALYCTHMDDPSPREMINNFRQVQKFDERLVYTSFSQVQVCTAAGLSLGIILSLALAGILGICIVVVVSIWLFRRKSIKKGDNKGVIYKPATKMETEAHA

Ki (Carbonic anhydrase 1) [nM]	Ki (Carbonic anhydrase 9) [nM]	Ki (Carbonic anhydrase 12) [nM]	Ki (Carbonic anhydrase 14) [nM]	Ki (Carbonic anhydrase 2) [nM]	solubility [1] [mg/mL]	SMILES
5790	2.8	10.2	108	9.3	> 20	NS(=O)(=O)c1ccc(CCNC(=S)N[C@@H]2O[C@H](CO)[C@H](O)[C@H](O)[C@H]2O)cc1
		8.2	8.6	109	> 20	NS(=O)(=O)c1ccc(C(=O)NNC(=S)N[C@@H]2O[C@H](CO)[C@@H](O[C@H]3O[C@H](CO)[C@@H](O)[C@H](O)[C@H]3O)[C@H](O)[C@H]2O)cc1
100		7.5	8.5	7.8		CC(=O)OC[C@H]1O[C@@H](NC(=S)NCc2ccc(S(N)(=O)=O)cc2)[C@H](OC(C)=O)[C@@H](OC(C)=O)[C@@H]1OC(C)=O
7880		8.6	8	525	> 20	NS(=O)(=O)c1ccc(C(=O)NNC(=S)N[C@@H]2O[C@H](CO)[C@@H](O)[C@H](O)[C@H]2O)cc1
7980	258	81	55	6.9	> 20	NS(=O)(=O)c1ccc(NC(=S)N[C@@H]2O[C@H](CO)[C@@H](O[C@@H]3O[C@H](CO)[C@H](O)[C@H](O)[C@H]3O)[C@H](O)[C@H]2O)cc1
		8.7	8.5	7.4	> 20	NS(=O)(=O)c1ccc(C(=O)NNC(=S)N[C@@H]2O[C@H](CO)[C@@H](O[C@@H]3O[C@H](CO)[C@H](O)[C@H](O)[C@H]3O)[C@H](O)[C@H]2O)cc1
4060	8.3	7.9	44	105	> 20	NS(=O)(=O)c1ccc(CNC(=S)N[C@@H]2O[C@H](CO)[C@@H](O[C@@H]3O[C@H](CO)[C@H](O)[C@H](O)[C@H]3O)[C@H](O)[C@H]2O)cc1
9	8.7	9.7	8	108	> 20	NS(=O)(=O)c1ccc(CCNC(=S)N[C@@H]2O[C@H](CO)[C@@H](O)[C@H](O)[C@H]2O)cc1
6300	8.4	12.5	8.5	376	> 20	NS(=O)(=O)c1ccc(CNC(=S)N[C@@H]2O[C@H](CO)[C@@H](O[C@H]3O[C@H](CO)[C@@H](O)[C@H](O)[C@H]3O)[C@H](O)[C@H]2O)cc1
6340		100	807	11.9		CC(=O)OC[C@H]1O[C@@H](NC(=S)NCc2ccc(S(N)(=O)=O)cc2)[C@H](OC(C)=O)[C@@H](OC(C)=O)[C@H]1OC(C)=O
7920	8.4	300	9.8	7.5	> 20	NS(=O)(=O)c1ccc(NC(=S)N[C@@H]2O[C@H](CO)[C@@H](O[C@H]3O[C@H](CO)[C@@H](O)[C@H](O)[C@H]3O)[C@H](O)[C@H]2O)cc1
7500		8.2	16	377	> 20	NS(=O)(=O)c1ccc(CNC(=S)N[C@@H]2O[C@H](CO)[C@@H](O)[C@H](O)[C@H]2O)cc1
6840		20.1	125	222	> 20	NS(=O)(=O)c1ccc(NC(=S)N[C@@H]2O[C@H](CO)[C@H](O)[C@H](O)[C@H]2O)cc1
4040		8.5	8.2	344	> 20	NS(=O)(=O)c1ccc(C(=O)NNC(=S)N[C@@H]2O[C@H](CO)[C@H](O)[C@H](O)[C@H]2O)cc1

Further lines, the molecule ahead of its results:

SMILES	Ki (Carbonic anhydrase 1) [nM]	Ki (Carbonic anhydrase 9) [nM]	Ki (Carbonic anhydrase 12) [nM]	Ki (Carbonic anhydrase 14) [nM]	Ki (Carbonic anhydrase 2) [nM]	solubility [1] [mg/mL]
CC(=O)OC[C@H]1O[C@@H](NC(=S)NCCc2ccc(S(N)(=O)=O)cc2)[C@H](OC(C)=O)[C@@H](OC(C)=O)[C@@H]1OC(C)=O	5510	451	8.9	8.8	7.3	
CC(=O)OC[C@H]1O[C@@H](NC(=S)Nc2ccc(S(N)(=O)=O)cc2)[C@H](OC(C)=O)[C@@H](OC(C)=O)[C@H]1OC(C)=O	6710		45.6	126	524	
CC(=O)OC[C@H]1O[C@@H](NC(=S)NNC(=O)c2ccc(S(N)(=O)=O)cc2)[C@H](OC(C)=O)[C@@H](OC(C)=O)[C@H]1OC(C)=O	6410	3.3	7.8	10.7	8.6	
CC(=O)OC[C@H]1O[C@@H](NC(=S)NCCc2ccc(S(N)(=O)=O)cc2)[C@H](OC(C)=O)[C@@H](OC(C)=O)[C@H]1OC(C)=O	100	433	8.8	8.7	297	
NS(=O)(=O)c1ccc(NC(=S)N[C@@H]2O[C@H](CO)[C@@H](O)[C@H](O)[C@H]2O)cc1	7680	282	8.2	41	7	> 20
CC(=O)OC[C@H]1O[C@@H](O[C@H]2[C@H](OC(C)=O)[C@@H](OC(C)=O)[C@H](NC(=S)NCc3ccc(S(N)(=O)=O)cc3)O[C@@H]2COC(C)=O)[C@H](OC(C)=O)[C@@H](OC(C)=O)[C@H]1OC(C)=O	110		7.4	8.5	390	
CC(=O)OC[C@H]1O[C@@H](NC(=S)NCc2ccc(S(N)(=O)=O)cc2)[C@H](OC(C)=O)[C@@H](OC(C)=O)[C@@H]1O[C@H]1O[C@H](COC(C)=O)[C@@H](OC(C)=O)[C@H](OC(C)=O)[C@H]1OC(C)=O	4570		8.4	8.6	7.3	
CC(=O)OC[C@H]1O[C@@H](NC(=S)Nc2ccc(S(N)(=O)=O)cc2)[C@H](OC(C)=O)[C@@H](OC(C)=O)[C@@H]1O[C@H]1O[C@H](COC(C)=O)[C@@H](OC(C)=O)[C@H](OC(C)=O)[C@H]1OC(C)=O	6040		10.1	7.9	539	
CC(=O)OC[C@H]1O[C@@H](O[C@H]2[C@H](OC(C)=O)[C@@H](OC(C)=O)[C@H](NC(=S)Nc3ccc(S(N)(=O)=O)cc3)O[C@@H]2COC(C)=O)[C@H](OC(C)=O)[C@@H](OC(C)=O)[C@H]1OC(C)=O	100		8.2	8.6	7.6	
NS(=O)(=O)c1ccc(CNC(=S)N[C@@H]2O[C@H](CO)[C@H](O)[C@H](O)[C@H]2O)cc1	6420	6.9	111	129	60	> 20
CC(=O)OC[C@H]1O[C@@H](O[C@H]2[C@H](OC(C)=O)[C@@H](OC(C)=O)[C@H](NC(=S)NNC(=O)c3ccc(S(N)(=O)=O)cc3)O[C@@H]2COC(C)=O)[C@H](OC(C)=O)[C@@H](OC(C)=O)[C@H]1OC(C)=O	5900		8.1	10.6	6.4	
CC(=O)OC[C@H]1O[C@@H](NC(=S)NNC(=O)c2ccc(S(N)(=O)=O)cc2)[C@H](OC(C)=O)[C@@H](OC(C)=O)[C@@H]1O[C@H]1O[C@H](COC(C)=O)[C@@H](OC(C)=O)[C@H](OC(C)=O)[C@H]1OC(C)=O	2940		7.6	10.5	10.2	
NS(=O)(=O)c1ccc(CCNC(=S)N[C@@H]2O[C@H](CO)[C@@H](O[C@@H]3O[C@H](CO)[C@H](O)[C@H](O)[C@H]3O)[C@H](O)[C@H]2O)cc1	100	8.9	13.5	8.4	9	> 20
CC(=O)OC[C@H]1O[C@@H](O[C@H]2[C@H](OC(C)=O)[C@@H](OC(C)=O)[C@H](NC(=S)NCCc3ccc(S(N)(=O)=O)cc3)O[C@@H]2COC(C)=O)[C@H](OC(C)=O)[C@@H](OC(C)=O)[C@H]1OC(C)=O	3770	362	48.1	9.1	8.7	
CC(=O)OC[C@H]1O[C@@H](NC(=S)NCCc2ccc(S(N)(=O)=O)cc2)[C@H](OC(C)=O)[C@@H](OC(C)=O)[C@@H]1O[C@H]1O[C@H](COC(C)=O)[C@@H](OC(C)=O)[C@H](OC(C)=O)[C@H]1OC(C)=O	3720	122	8.4	8.7	9.8	
CC(=O)OC[C@H]1O[C@@H](NC(=S)NNC(=O)c2ccc(S(N)(=O)=O)cc2)[C@H](OC(C)=O)[C@@H](OC(C)=O)[C@@H]1OC(C)=O	3770	8.7	7.3	10.3	10	
CC(=O)OC[C@H]1O[C@@H](NC(=S)Nc2ccc(S(N)(=O)=O)cc2)[C@H](OC(C)=O)[C@@H](OC(C)=O)[C@@H]1OC(C)=O	4930		7.2	8.3	7	
NS(=O)(=O)c1ccc(CCNC(=S)N[C@@H]2O[C@H](CO)[C@@H](O[C@H]3O[C@H](CO)[C@@H](O)[C@H](O)[C@H]3O)[C@H](O)[C@H]2O)cc1	4260	2.1	9.8	7.8	271	> 20
